Experimental data reported in patent publication US20230044979A1, “ANIMAL CELL CULTURING METHOD” (AJINOMOTO CO., INC., priority 2020, published 2023).

Tests used:
[1] = Stability of L-cysteine derivatives in buffer solution (crystal precipitation by visual observation); format: physicochemical; details: 58 mM in PBS buffer pH 7.0 to 7.2; for relative stability compared with L-cysteine: 5° C. in the dark; for crystal precipitation, Days 0 / crystal precipitation, Days 3 / crystal precipitation, Days 7 / crystal precipitation, Days 14 / crystal precipitation, Days 21 / crystal precipitation, Days 24: stored at 5° C. in the dark; for crystal precipitation, Days 0: day 0; for crystal precipitation, Days 3: day 3; for crystal precipitation, Days 7: day 7; for crystal precipitation, Days 14: day 14; for crystal precipitation, Days 21: day 21; for crystal precipitation, Days 24: day 24
Description: In this Example, the stability of L-cysteine derivatives in a buffer solution was evaluated.
In the table, “+” to “++++” indicate that crystal precipitation was observed, and the higher the number of “+”, the greater the degree of precipitation.

CHO cells [2] = experiment: Effect of addition of L-cysteine derivatives to feed medium on proliferation of CHO cells and antibody production (3); format: cell-based, Chinese hamster; details: 58 mM in feed medium, 11 days culture, compared to the case without addition of L-cysteine; for cell count: FIG. 6; for antibody production amount: FIG. 7
Description: (§1) CELLiST (registered trademark) Basal media (Ajinomoto Co., Ltd.: BASAL3; containing 1.3 mM L-cysteine) was added with LR3-IGF-1 (SIGMA-ALDRICH: I1271-1MG, final concentration of 50 μg/mL) and L-Glutamine (Thermo Fisher SCIENTIFIC: 25030081, final concentration of 6 mM), to prepare a basal medium.
Feed media each containing 82 g/L Cellvento (registered trademark) Feed-210 (Merck: 1.02488.0005), 70 g/L glucose (Wako Pure Chemical Industries, Ltd.: 043-31163), and L-cysteine, Compound 4, Compound 8, Compound 9, or Compound 11 each at 58 mM were prepared. In addition, a feed medium without addition of L-cysteine, which only contained 82 g/L Cellvento (registered trademark) Feed-210 and 70 g/L glucose, was prepared. Separately, a tyrosine concentrate (L-tyrosine disodium salt dihydrate (Merck: 122666-87-9) 74.82 g/L, pH 11.3) was prepared.
A 30 mL-aliquot of a CHO cell suspension adjusted to 3×10^5 cells/mL using the prepared basal medium was seeded into 125 mL-volume flasks (CORNING: 431143), and cultured for 11 days. The culture was carried out with n=2 for all experimental groups. The culture temperature was 37° C. and the agitation speed was 110 rpm. A 1.8 mL-aliquot of each of the prepared feed media and a 120 μL-aliquot of the tyrosine concentrate were added on days 4, 7, and 9 from the start of the culture. A cell culture broth was sampled on days 4, 7, 9, and 11 from the start of the culture, and the viable cell count was measured using a viable/dead cells autoanalyzer Vi-CELL™ XR (Beckman Coulter), and the antibody production amount was measured using Octet QK (FORTEBIO).

CHO cells [3] = experiment: Effect of addition of L-cysteine derivatives to feed medium on proliferation of CHO cells and antibody production (2); format: cell-based, Chinese hamster; details: for proliferation performance of cells: 14.5 mM in feed medium, L-cysteine in the feed medium substituted; for proliferation performance of cells / cell count, dependence on concentration: FIG. 4; for IgG production amount: 58.0 mM in feed medium; for IgG production amount / IgG production amount, dependence on concentration: FIG. 5; for cell count, dependence on concentration / IgG production amount, dependence on concentration: 14.5, 29, 58 mM in feed medium
Description: as §1
Feed media each containing 82 g/L Cellvento (registered trademark) Feed-210 (Merck: 1.02488.0005), 70 g/L glucose (Wako Pure Chemical Industries, Ltd.: 043-31163), and L-cysteine, Compound 3S, or Compound 3R each at 14.5 mM, 29 mM, or 58 mM were prepared. Separately, a tyrosine concentrate (L-tyrosine disodium salt dihydrate (Merck: 122666-87-9) 74.82 g/L, pH 11.3) was prepared.
A 3 mL-aliquot of a CHO cell suspension adjusted to 3×10^5 cells/mL using the prepared basal medium was seeded into a 6 well plate (CORNING, Cat. No. CLS3471), and cultured for 14 days. The culture was carried out with n=2 for all experimental groups. The culture temperature was 37° C. and the agitation speed was 110 rpm. A 0.18 mL-aliquot of each of the prepared feed media and a 12 μL-aliquot of the tyrosine concentrate were added on days 4, 7, 9, and 11 from the start of the culture. A cell culture broth was sampled on days 4, 7, 9, 11, and 14 from the start of the culture, and the viable cell count was measured using a viable/dead cells autoanalyzer Vi-CELL™ XR (Beckman Coulter), and the antibody production amount on days 11 and 14 from the start of the culture was measured using Octet QK (FORTEBIO).

Row | SMILES | relative stability compared with L-cysteine [1] | crystal precipitation, Days 0 [1] | crystal precipitation, Days 3 [1] | crystal precipitation, Days 7 [1] | crystal precipitation, Days 14 [1] | crystal precipitation, Days 21 [1] | crystal precipitation, Days 24 [1] | cell count (CHO cells [2]) | antibody production amount (CHO cells [2]) | ability to substitute for L-cysteine (CHO cells [3]; in feed medium) | proliferation performance of cells (CHO cells [3]) | IgG production amount (CHO cells [3]) | cell count, dependence on concentration (CHO cells [3]) | IgG production amount, dependence on concentration (CHO cells [3])
1 | CCOC(=O)C1N[C@H](C(=O)O)CS1 (mixture of isomers) [Compound 8, (2RS,4R)-2,4-thiazolidinedicarboxylic acid 2-ethyl ester] | more stable than L-cysteine | − | − | − | − | − | − | higher than those of the case without addition of L-cysteine | higher than those of the case without addition of L-cysteine |  |  |  |  | 
2 | COC(=O)[C@@]1(C)N[C@H](C(=O)O)CS1 (stereo in doubt) [Compound 3, (2RS,4R)-2-methyl-2,4-thiazolidinedicarboxylic acid 2-methyl ester] |  |  |  |  |  |  |  |  |  | able to substitute for L-cysteine |  |  |  | 
3 | CC(C)(C)OC(=O)C1(C)N[C@H](C(=O)O)CS1 (mixture of isomers) [Compound 6, (2RS,4R)-2-methyl-2,4-thiazolidinedicarboxylic acid 2-t-butyl ester] | more stable than L-cysteine | − | − | − | − | − | − |  |  |  |  |  |  | 
4 | CC(C)OC(=O)C1(C)N[C@H](C(=O)O)CS1 (mixture of isomers) [Compound 4, (2RS,4R)-2-methyl-2,4-thiazolidinedicarboxylic acid 2-i-propyl ester] | more stable than L-cysteine | − | − | − | − | − | − | higher than those of the case without addition of L-cysteine | higher than those of the case without addition of L-cysteine |  |  |  |  | 
5 | COC(=O)C1(Cc2ccc(O)cc2)N[C@H](C(=O)O)CS1 (mixture of isomers) [Compound 9, (2RS,4R)-2-(4-hydroxyphenyl)methyl-2,4-thiazolidinedicarboxylic acid 2-methyl ester] | more stable than L-cysteine | − | − | − | − | − | − | higher than those of the case without addition of L-cysteine | higher than those of the case without addition of L-cysteine |  |  |  |  | 
6 | COC(=O)C1(CC(C)C)N[C@H](C(=O)O)CS1 (mixture of isomers) [Compound 11, (2RS,4R)-2-i-butyl-2,4-thiazolidinedicarboxylic acid 2-methyl ester] |  |  |  |  |  |  |  | decreased | decreased |  |  |  |  | 

Now from value to compound, other results behind:

Row | relative stability compared with L-cysteine [1] | crystal precipitation, Days 0 [1] | crystal precipitation, Days 3 [1] | crystal precipitation, Days 7 [1] | crystal precipitation, Days 14 [1] | crystal precipitation, Days 21 [1] | crystal precipitation, Days 24 [1] | SMILES | cell count (CHO cells [2]) | antibody production amount (CHO cells [2]) | ability to substitute for L-cysteine (CHO cells [3]; in feed medium) | proliferation performance of cells (CHO cells [3]) | IgG production amount (CHO cells [3]) | cell count, dependence on concentration (CHO cells [3]) | IgG production amount, dependence on concentration (CHO cells [3])
7 | more stable than L-cysteine | − | − | − | − | − | − | COC(=O)[C@@]1(C)N[C@H](C(=O)O)CS1 (stereo in doubt) [Compound 3S, (2RS,4R)-2-methyl-2,4-thiazolidinedicarboxylic acid 2-methyl ester] |  |  |  | approximately 70% | equivalent to that of the group adding 14.5 mM or 29.0 mM of L-cysteine hydrochloride monohydrate | increased in a concentration-dependent manner | increased in a concentration-dependent manner
8 | more stable than L-cysteine | − | − | − | − | − | − | COC(=O)[C@]1(C)N[C@H](C(=O)O)CS1 (stereo in doubt) [Compound 3R, (2RS,4R)-2-methyl-2,4-thiazolidinedicarboxylic acid 2-methyl ester] |  |  |  | approximately 70% | equivalent to that of the group adding 14.5 mM or 29.0 mM of L-cysteine hydrochloride monohydrate | increased in a concentration-dependent manner | increased in a concentration-dependent manner
